{
  "source": "patent US11912693B2",
  "about": "“Compounds for modulating S1P1 activity and methods of using the same” (TREVENA, INC., priority 2017, dated 2024)",
  "key": {"[1]": {"molecular_target": "human sphingosine-1-phosphate receptor 1 (S1P1) (Homo sapiens (Human), UniProt P21453)", "sequence (P21453 whole entry, looked up, the tested form may be a part)": "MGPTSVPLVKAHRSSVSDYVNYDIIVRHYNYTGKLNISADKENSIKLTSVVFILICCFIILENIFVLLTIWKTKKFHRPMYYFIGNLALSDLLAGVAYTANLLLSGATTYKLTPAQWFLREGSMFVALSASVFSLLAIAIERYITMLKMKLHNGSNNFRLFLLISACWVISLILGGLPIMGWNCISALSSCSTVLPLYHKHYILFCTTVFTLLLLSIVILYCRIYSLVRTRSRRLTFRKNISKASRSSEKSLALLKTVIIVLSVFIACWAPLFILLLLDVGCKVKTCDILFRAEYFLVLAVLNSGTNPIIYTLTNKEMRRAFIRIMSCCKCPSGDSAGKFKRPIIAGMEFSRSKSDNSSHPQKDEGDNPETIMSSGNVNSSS", "sequence (P32121 whole entry partner, looked up, the tested form may be a part)": "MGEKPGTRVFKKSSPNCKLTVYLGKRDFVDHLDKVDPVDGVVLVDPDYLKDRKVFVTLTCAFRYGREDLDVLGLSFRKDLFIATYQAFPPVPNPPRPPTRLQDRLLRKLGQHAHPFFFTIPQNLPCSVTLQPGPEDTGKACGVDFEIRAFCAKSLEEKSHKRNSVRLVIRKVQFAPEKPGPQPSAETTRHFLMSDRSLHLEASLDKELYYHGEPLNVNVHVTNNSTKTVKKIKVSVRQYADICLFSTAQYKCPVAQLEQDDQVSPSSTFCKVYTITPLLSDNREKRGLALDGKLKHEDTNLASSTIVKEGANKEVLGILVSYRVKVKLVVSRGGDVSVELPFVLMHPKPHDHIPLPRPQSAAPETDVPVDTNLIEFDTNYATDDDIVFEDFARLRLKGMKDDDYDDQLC", "assay": "β-Arrestin2 recruitment assay (PathHunter), S1P1 CHO-K1 cells", "type": "cell-based", "conditions": "for hS1P1 B-arrestin2 pEC50: β-arrestin2 recruitment, S1P1 CHO-K1 cells; for Emax: CHO-K1, read-out: hS1P1 B-arrestin2 SPAN", "summary_of_the_method": "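Enzyme-fragment complementation read-out: agonist-driven β-arrestin2 binding to ProLink-tagged human S1P1 in stable CHO-K1 cells restores β-galactosidase, measured 1 h at room temperature after a 60 min 37° C. compound incubation. Potency as pEC50, efficacy relative to fingolimod (SPAN).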"}, "[2]": {"molecular_target": "sphingosine-1-phosphate receptor 5 (S1P5) (Homo sapiens (Human), UniProt Q9H228)", "sequence (Q9H228 whole entry)": "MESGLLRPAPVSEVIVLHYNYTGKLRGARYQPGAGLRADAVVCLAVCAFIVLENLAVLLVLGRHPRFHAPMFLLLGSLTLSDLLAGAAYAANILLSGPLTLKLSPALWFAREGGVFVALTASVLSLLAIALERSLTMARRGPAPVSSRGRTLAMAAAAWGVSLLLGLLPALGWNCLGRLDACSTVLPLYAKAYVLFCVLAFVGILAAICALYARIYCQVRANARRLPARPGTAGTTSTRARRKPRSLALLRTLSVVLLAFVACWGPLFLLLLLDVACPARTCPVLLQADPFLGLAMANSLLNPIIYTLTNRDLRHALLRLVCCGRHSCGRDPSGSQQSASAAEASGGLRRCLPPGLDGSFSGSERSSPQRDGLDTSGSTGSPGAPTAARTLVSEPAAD", "assay": "Inhibition of cAMP production (HTRF), S1P5 CHO-K1 cells", "type": "cell-based", "conditions": "for hS1P5 cAMP pEC50: inhibition of cAMP production; for Emax: CHO-K1, efficacy normalized to fingolimod, read-out: hS1P5 cAMP SPAN"}, "[3]": {"molecular_target": "human sphingosine-1-phosphate receptor 2 (S1P2) (Homo sapiens (Human), UniProt O95136)", "sequence (O95136 whole entry)": "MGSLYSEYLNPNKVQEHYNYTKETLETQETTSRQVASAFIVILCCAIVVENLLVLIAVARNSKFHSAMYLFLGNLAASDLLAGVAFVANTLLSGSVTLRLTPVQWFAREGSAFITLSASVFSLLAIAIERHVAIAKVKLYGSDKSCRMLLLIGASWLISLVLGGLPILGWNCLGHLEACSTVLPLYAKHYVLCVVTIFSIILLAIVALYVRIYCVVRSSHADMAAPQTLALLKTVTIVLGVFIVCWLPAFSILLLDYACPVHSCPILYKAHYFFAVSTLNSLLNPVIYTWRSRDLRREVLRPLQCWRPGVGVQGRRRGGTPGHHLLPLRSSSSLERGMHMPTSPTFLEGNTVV", "assay": "Inositol monophosphate production (IP-one TB kit), S1P2 CHO-K1 cells", "type": "cell-based", "conditions": "for hS1P2 IP-one pEC50: inositol monophosphate accumulation; for Emax: CHO-K1, efficacy normalized to CYM5520, read-out: hS1P2 IP-one SPAN", "summary_of_the_method": "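Stable CHO-K1 cells expressing EA-β-arrestin2 and Prolink-tagged human S1P2, plated overnight, then exposed to compounds in IP-one stimulation buffer for 60 min at 37 °C. IP1 read by TR-FRET after 1 h at RT. Efficacy (SPAN) normalized to CYM5520; potency as pEC50.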"}, "[4]": {"test_system": "peripheral blood lymphocytes", "assay": "Peripheral blood lymphocytes (lymphopenia) in c57bl/6 mice, acute and chronic studies", "type": "in vivo", "conditions": "6 mg/kg sc, 7 days; for Lymphopenia: Effect and Doses, mg/kg, sc: peripheral blood lymphocytes vs vehicle", "procedure": "Compounds were tested for changes in peripheral blood lymphocytes in c57bl/6 mice. In acute studies, animals (n=5/group) were dosed subcutaneously with test compound at a dose of 3 mg/kg. Animals were sacrificed at specific time points and 500 μl of whole blood was collected in EDTA (K2) Eppendorf tubes. Blood was stored on ice and shipped immediately overnight delivery to Charles River Laboratories for analysis. CRL ran samples through their WBC/differential panel on an Advia 120 instrument. We received peripheral lymphocyte counts (10^3 cells/μl) for each blood sample. Treatment group means were compared to a vehicle treatment group for statistical significance. In chronic studies, animals (n=6-8/group) were dosed subcutaneously with test compound either in a dose response paradigm (highest dose of 3 mg/kg) or in a screening paradigm at 6 mg/kg for seven days. On the seventh day, animals were sacrificed 45 minutes after the final dose. Whole blood was collected and analyzed as described for acute studies. […]"}, "[5]": {"conditions": "efficacy (SPAN) normalized to fingolimod"}},
  "data": [
    {"smiles": "COc1ccc(-c2noc(-c3ccc4c(c3)nnn4CC(C)(C)O)n2)c(C)c1", "note": "[Compound 26, 1-{5-[3-(4-methoxy-2-methylphenyl)-1,2,4-oxadiazol-5-yl]-1H-1,2,3-benzotriazol-1-yl}-2-methylpropan-2-ol]", "values": [
      {"measurement": "hS1P1 B-arrestin2 SPAN", "setting": "[1]; [5]", "result": "<75"},
      {"measurement": "hS1P1 B-arrestin2 pEC50", "setting": "[1]", "result": ">5"},
      {"measurement": "hS1P5 cAMP pEC50", "setting": "[2]", "result": "<5.0"},
      {"measurement": "hS1P2 IP-one pEC50", "setting": "[3]", "result": "<5.0"}
    ]},
    {"smiles": "Cc1ccccc1-c1nc(-c2ccc3c(c2)nnn3C(C)C)no1", "note": "[Compound 99, 3-(1-isopropyl-1H-benzo[d][1,2,3]triazol-5-yl)-5-(o-tolyl)-1,2,4-oxadiazole]", "values": [
      {"measurement": "hS1P1 B-arrestin2 pEC50", "setting": "[1]", "result": ">5"},
      {"measurement": "hS1P5 cAMP pEC50", "setting": "[2]", "result": "<5.0"},
      {"measurement": "Lymphopenia: Effect and Doses, mg/kg, sc", "setting": "[4]", "result": "no change: 6 mg/kg, 7 days"},
      {"measurement": "hS1P2 IP-one pEC50", "setting": "[3]", "result": "<5.0"}
    ]},
    {"smiles": "CCC1(CC)CC(=O)c2cc(-c3nc(-c4cccnc4)no3)ccc2O1", "note": "[Compound 103, 2,2-diethyl-6-[3-(pyridin-3-yl)-1,2,4-oxadiazol-5-yl]-3,4-dihydro-2H-1-benzopyran-4-one]", "values": [
      {"measurement": "Emax", "setting": "[1]; [5]", "result": "> 75", "unit": "%"},
      {"measurement": "hS1P1 B-arrestin2 pEC50", "setting": "[1]", "result": ">5"},
      {"measurement": "Emax", "setting": "[2]", "result": "< 50", "unit": "%"},
      {"measurement": "hS1P5 cAMP pEC50", "setting": "[2]", "result": "<5.0"},
      {"measurement": "Lymphopenia: Effect and Doses, mg/kg, sc", "setting": "[4]", "result": "no change: 6 mg/kg, 7 days"},
      {"measurement": "Emax", "setting": "[3]", "result": "< 50", "unit": "%"},
      {"measurement": "hS1P2 IP-one pEC50", "setting": "[3]", "result": "<5.0"}
    ]},
    {"smiles": "CCC1(CC)CC(=O)c2cc(-c3nc(-c4cccnc4OC)no3)ccc2O1", "note": "[Compound 147, 2,2-diethyl-6-(3-(2-methoxypyridin-3-yl)-1,2,4-oxadiazol-5-yl)chroman-4-one]", "values": [
      {"measurement": "Emax", "setting": "[1]; [5]", "result": "> 75", "unit": "%"},
      {"measurement": "hS1P1 B-arrestin2 pEC50", "setting": "[1]", "result": ">5"},
      {"measurement": "Emax", "setting": "[2]", "result": "< 50", "unit": "%"},
      {"measurement": "hS1P5 cAMP pEC50", "setting": "[2]", "result": ">5.0"},
      {"measurement": "Lymphopenia: Effect and Doses, mg/kg, sc", "setting": "[4]", "result": "no change: 6 mg/kg, 7 days"},
      {"measurement": "Emax", "setting": "[3]", "result": "< 50", "unit": "%"},
      {"measurement": "hS1P2 IP-one pEC50", "setting": "[3]", "result": "<5.0"}
    ]},
    {"smiles": "CCC1(CC)CC(=O)c2cc(-c3nc(-c4ccncc4OC)no3)ccc2O1", "note": "[Compound 212, 2,2-diethyl-6-(3-(3-methoxypyridin-4-yl)-1,2,4-oxadiazol-5-yl)chroman-4-one]", "values": [
      {"measurement": "Emax", "setting": "[1]; [5]", "result": "< 75", "unit": "%"},
      {"measurement": "hS1P1 B-arrestin2 pEC50", "setting": "[1]", "result": ">5"},
      {"measurement": "Emax", "setting": "[2]", "result": "< 50", "unit": "%"},
      {"measurement": "hS1P5 cAMP pEC50", "setting": "[2]", "result": "<5.0"},
      {"measurement": "Emax", "setting": "[3]", "result": "< 50", "unit": "%"},
      {"measurement": "hS1P2 IP-one pEC50", "setting": "[3]", "result": "<5.0"}
    ]},
    {"smiles": "COc1ccccc1-c1nc(-c2ccc3c(c2)nnn3C(C)C)no1", "note": "[Compound 287, 3-(1-isopropyl-1H-benzo[d][1,2,3]triazol-5-yl)-5-(2-methoxyphenyl)-1,2,4-oxadiazole]", "values": [
      {"measurement": "hS1P1 B-arrestin2 pEC50", "setting": "[1]", "result": ">5"},
      {"measurement": "hS1P5 cAMP pEC50", "setting": "[2]", "result": "<5.0"},
      {"measurement": "Lymphopenia: Effect and Doses, mg/kg, sc", "setting": "[4]", "result": "no change: 6 mg/kg, 7 days"},
      {"measurement": "hS1P2 IP-one pEC50", "setting": "[3]", "result": "<5.0"}
    ]},
    {"smiles": "Cc1ccccc1-c1noc(-c2ccc3c(c2)nnn3C(C)C)n1", "note": "[Compound 293, 5-[3-(2-methylphenyl)-1,2,4-oxadiazol-5-yl]-1-(propan-2-yl)-1H-1,2,3-benzotriazole]", "values": [
      {"measurement": "Emax", "setting": "[1]; [5]", "result": "> 75", "unit": "%"},
      {"measurement": "hS1P1 B-arrestin2 pEC50", "setting": "[1]", "result": ">5"},
      {"measurement": "Emax", "setting": "[2]", "result": "> 50", "unit": "%"},
      {"measurement": "hS1P5 cAMP pEC50", "setting": "[2]", "result": "<5.0"},
      {"measurement": "Lymphopenia: Effect and Doses, mg/kg, sc", "setting": "[4]", "result": "no change: 6 mg/kg, 7 days"},
      {"measurement": "Emax", "setting": "[3]", "result": "< 50", "unit": "%"},
      {"measurement": "hS1P2 IP-one pEC50", "setting": "[3]", "result": "<5.0"}
    ]},
    {"smiles": "CC(C)n1nnc2cc(-c3nc(-c4cccc5c4OCCC5)no3)ccc21", "note": "[Compound 304, 3-chroman-8-yl-5-(1-isopropylbenzotriazol-5-yl)-1,2,4-oxadiazole]", "values": [
      {"measurement": "hS1P1 B-arrestin2 pEC50", "setting": "[1]", "result": ">5"},
      {"measurement": "hS1P5 cAMP pEC50", "setting": "[2]", "result": "<5.0"},
      {"measurement": "Lymphopenia: Effect and Doses, mg/kg, sc", "setting": "[4]", "result": "no change: 6 mg/kg, 7 days"},
      {"measurement": "hS1P2 IP-one pEC50", "setting": "[3]", "result": "<5.0"}
    ]},
    {"smiles": "CC(C)n1nnc2cc(-c3nc(-c4ccncc4C(F)(F)F)no3)ccc21", "note": "[Compound 455, 1-(propan-2-yl)-5-{3-[3-(trifluoromethyl)pyridin-4-yl]-1,2,4-oxadiazol-5-yl}-1H-1,2,3-benzotriazole]", "values": [
      {"measurement": "Emax", "setting": "[1]; [5]", "result": "> 75", "unit": "%"},
      {"measurement": "hS1P1 B-arrestin2 pEC50", "setting": "[1]", "result": ">5"},
      {"measurement": "Lymphopenia: Effect and Doses, mg/kg, sc", "setting": "[4]", "result": "no change: 6 mg/kg, 7 days"},
      {"measurement": "Emax", "setting": "[3]", "result": "< 50", "unit": "%"},
      {"measurement": "hS1P2 IP-one pEC50", "setting": "[3]", "result": "<5.0"}
    ]},
    {"smiles": "CCC1(CC)CC(=O)c2cc(-c3nc(-c4cn[nH]c4)no3)ccc2O1", "note": "[Compound 469, 6-(3-(1H-pyrazol-4-yl)-1,2,4-oxadiazol-5-yl)-2,2-diethylchroman-4-one]", "values": [
      {"measurement": "Emax", "setting": "[1]; [5]", "result": "> 75", "unit": "%"},
      {"measurement": "hS1P1 B-arrestin2 pEC50", "setting": "[1]", "result": ">5"},
      {"measurement": "Lymphopenia: Effect and Doses, mg/kg, sc (change in peripheral blood lymphocytes)", "setting": "[4]; significance vs vehicle given", "result": "−28% not stat sig: 6 mg/kg, 7 days"}
    ]}
  ]
}
